In publication PMC4858680, “A platinum-based hybrid drug design approach to circumvent acquired resistance to molecular targeted tyrosine kinase inhibitors” (Scientific Reports, 2016):
Residue numbers refer to the chain shown, from its start. Read-outs that look alike come from different tables or passages of the source.

Tests used:
FER = target: T1, FER (Homo sapiens, UniProt P16591); format: binding; conditions: for Percent control: 10 μM
T1 construct: purchased DiscoveRx KINOMEscan

FLT3 = target: T2, FLT3 (Homo sapiens, UniProt P36888)
T2 sequence (P36888 27-993): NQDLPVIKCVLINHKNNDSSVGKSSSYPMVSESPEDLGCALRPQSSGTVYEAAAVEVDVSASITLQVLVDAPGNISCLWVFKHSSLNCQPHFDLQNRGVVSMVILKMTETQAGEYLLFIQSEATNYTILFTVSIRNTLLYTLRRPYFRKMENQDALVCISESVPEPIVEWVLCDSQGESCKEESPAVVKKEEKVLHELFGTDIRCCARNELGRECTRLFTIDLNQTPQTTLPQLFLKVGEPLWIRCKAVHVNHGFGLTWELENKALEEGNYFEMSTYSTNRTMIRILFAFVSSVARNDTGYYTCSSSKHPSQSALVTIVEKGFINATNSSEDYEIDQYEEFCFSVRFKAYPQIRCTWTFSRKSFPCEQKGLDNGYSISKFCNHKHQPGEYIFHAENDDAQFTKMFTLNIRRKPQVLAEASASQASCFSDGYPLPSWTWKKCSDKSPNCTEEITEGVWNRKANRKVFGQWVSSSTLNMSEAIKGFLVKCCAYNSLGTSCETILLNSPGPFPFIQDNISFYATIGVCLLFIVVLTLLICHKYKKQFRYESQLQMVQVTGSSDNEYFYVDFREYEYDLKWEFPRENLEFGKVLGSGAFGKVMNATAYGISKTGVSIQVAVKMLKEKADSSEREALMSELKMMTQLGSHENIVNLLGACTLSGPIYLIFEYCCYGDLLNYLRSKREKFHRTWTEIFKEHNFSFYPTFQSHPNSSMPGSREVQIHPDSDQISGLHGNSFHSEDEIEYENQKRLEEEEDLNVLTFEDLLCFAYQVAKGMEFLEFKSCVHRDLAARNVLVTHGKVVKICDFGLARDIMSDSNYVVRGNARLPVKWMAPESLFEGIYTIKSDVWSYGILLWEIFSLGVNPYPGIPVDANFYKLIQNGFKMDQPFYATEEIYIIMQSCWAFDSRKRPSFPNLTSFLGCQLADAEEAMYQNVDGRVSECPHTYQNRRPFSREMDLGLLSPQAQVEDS

FLT3(D835Y) = target: T3, FLT3(D835Y) (Homo sapiens, UniProt P36888, D835Y)
T3 sequence (P36888 27-993 D835Y): T2 sequence (P36888 27-993) with D809Y

LYN = LYN (Homo sapiens, UniProt P07948); conditions: 10 μM
ROS1 = ROS1 (Homo sapiens, UniProt P08922); conditions: 10 μM
ROS1, sequence (P08922 28-2347): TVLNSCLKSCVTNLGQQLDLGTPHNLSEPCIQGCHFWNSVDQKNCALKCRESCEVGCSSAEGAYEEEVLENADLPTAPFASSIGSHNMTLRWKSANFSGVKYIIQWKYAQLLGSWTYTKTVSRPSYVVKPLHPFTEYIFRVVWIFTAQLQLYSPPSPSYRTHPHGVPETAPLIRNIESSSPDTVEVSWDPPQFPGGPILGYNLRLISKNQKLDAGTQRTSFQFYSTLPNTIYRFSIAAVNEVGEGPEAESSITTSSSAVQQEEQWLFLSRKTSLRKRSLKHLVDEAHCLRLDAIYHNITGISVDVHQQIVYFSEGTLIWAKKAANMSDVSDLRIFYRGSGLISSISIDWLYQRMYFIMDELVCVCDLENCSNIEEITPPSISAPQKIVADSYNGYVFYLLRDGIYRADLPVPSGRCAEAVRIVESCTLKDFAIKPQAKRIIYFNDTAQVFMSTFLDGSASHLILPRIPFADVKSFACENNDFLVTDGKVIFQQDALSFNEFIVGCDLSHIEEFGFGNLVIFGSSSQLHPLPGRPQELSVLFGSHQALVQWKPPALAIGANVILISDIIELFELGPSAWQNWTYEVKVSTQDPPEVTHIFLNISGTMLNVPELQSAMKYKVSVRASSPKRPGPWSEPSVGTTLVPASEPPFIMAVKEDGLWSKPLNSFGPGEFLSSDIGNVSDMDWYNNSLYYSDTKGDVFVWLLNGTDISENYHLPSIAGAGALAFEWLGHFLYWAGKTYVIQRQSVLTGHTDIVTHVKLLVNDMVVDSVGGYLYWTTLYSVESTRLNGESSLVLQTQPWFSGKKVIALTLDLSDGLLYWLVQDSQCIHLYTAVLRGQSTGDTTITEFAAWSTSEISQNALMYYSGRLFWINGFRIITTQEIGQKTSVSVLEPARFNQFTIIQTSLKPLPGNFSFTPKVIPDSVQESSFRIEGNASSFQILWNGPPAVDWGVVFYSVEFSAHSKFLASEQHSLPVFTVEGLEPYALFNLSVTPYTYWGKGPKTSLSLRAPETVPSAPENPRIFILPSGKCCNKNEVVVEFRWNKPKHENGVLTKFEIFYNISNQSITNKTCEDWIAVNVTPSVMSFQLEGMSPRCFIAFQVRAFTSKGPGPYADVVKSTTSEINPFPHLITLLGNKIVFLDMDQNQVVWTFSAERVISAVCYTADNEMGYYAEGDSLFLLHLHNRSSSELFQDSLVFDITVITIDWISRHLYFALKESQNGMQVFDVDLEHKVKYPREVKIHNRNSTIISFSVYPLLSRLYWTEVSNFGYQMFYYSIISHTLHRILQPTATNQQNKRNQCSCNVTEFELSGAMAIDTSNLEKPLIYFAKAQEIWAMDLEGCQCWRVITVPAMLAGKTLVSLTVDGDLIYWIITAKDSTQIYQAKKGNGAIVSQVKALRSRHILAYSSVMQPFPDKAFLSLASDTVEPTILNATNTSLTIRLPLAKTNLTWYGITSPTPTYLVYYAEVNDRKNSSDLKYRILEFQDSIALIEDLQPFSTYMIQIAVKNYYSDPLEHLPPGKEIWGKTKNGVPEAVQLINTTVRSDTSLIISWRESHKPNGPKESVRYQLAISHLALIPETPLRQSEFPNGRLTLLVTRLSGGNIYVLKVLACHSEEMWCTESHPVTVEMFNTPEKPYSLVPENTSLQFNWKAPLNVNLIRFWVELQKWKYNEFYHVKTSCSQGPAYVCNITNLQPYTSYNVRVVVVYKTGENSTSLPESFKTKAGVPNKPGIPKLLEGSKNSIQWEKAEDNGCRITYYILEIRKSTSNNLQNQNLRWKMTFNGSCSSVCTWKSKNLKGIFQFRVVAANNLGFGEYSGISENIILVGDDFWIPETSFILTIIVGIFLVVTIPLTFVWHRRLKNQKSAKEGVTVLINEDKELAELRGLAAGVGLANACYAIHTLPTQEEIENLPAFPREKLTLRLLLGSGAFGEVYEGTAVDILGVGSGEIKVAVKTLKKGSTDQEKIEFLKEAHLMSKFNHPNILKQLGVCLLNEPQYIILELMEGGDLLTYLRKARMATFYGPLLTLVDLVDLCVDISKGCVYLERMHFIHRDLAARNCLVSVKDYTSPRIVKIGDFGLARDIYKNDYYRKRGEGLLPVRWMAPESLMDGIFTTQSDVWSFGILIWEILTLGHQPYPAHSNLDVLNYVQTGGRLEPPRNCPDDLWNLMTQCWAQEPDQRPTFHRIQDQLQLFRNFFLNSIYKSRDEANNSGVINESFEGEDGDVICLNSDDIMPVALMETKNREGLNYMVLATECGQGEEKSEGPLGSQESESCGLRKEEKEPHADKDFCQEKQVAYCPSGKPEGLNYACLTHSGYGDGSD

LYN, sequence (P07948 whole entry): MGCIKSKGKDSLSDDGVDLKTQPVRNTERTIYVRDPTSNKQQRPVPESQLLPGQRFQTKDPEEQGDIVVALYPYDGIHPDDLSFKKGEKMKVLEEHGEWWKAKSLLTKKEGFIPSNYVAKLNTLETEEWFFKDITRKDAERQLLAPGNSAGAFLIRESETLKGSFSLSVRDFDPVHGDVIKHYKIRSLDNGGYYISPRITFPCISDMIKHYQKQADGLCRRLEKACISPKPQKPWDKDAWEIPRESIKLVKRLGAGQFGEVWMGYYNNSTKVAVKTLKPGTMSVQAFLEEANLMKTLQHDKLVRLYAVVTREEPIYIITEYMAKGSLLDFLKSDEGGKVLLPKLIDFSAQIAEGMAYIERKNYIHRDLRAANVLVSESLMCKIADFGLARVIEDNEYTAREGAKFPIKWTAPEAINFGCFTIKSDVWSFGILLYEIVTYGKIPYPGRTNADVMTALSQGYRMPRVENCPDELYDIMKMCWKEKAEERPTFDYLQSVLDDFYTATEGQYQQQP
T1 sequence (P16591 whole entry): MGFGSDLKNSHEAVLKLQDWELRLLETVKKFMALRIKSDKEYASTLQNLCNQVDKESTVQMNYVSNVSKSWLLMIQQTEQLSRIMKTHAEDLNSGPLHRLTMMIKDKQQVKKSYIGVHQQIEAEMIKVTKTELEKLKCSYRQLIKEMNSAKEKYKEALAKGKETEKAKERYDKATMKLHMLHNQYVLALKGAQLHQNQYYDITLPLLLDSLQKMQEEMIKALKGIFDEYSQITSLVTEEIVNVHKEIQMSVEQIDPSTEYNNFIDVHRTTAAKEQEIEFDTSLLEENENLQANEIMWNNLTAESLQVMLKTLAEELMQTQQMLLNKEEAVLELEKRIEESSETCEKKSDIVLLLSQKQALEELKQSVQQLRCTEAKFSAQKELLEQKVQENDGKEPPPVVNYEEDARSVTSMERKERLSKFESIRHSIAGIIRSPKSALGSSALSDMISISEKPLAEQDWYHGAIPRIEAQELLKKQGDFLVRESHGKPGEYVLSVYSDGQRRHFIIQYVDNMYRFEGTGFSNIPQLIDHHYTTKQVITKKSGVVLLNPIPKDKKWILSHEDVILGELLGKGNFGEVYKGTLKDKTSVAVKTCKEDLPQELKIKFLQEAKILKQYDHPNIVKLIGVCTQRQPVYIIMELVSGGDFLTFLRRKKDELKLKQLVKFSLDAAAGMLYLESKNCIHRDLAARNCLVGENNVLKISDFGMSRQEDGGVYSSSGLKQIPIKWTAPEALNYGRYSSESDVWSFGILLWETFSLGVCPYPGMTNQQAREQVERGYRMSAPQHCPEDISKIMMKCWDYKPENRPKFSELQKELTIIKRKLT

SMILES	Percent control (FER) [%]	Percent control (FLT3)	Percent control (FLT3(D835Y))	Percent control (LYN) [%]	Percent control (ROS1) [%]	Percent control (FLT3; FLT3, 10 μM) [%]	Percent control (FLT3(D835Y); FLT3(D835Y), 10 μM) [%]	remaining binding at 10 µM (FER; read-out: Percent control) [%]
C#Cc1cccc(Nc2c3cc(OCCOC)c(OCCOC)cc3nc[n+]2[Pt@SP2-2]([NH3+])([NH3+])[Cl])c1 [2a, cisplatin-erlotinib]	95	75	21	69	91			
COc1cc2c(Nc3ccc(Br)cc3F)[n+]([Pt-2]3([Cl])[NH2+]C4CCCCC4[NH2+]3)cnc2cc1OCC1CCN(C)CC1 (stereo not drawn) [3b, oxaliplatin-vandetanib]	90	49	46	21	74			
Cc1ccc(NC(=O)c2ccc(CN3CCN(C)CC3)cc2)cc1Nc1nccc(-c2cccnc2)[n+]1[Pt-2]1([Cl])[NH2+]C2CCCCC2[NH2+]1 (stereo not drawn) [1b, oxaliplatin-imatinib]	89			67	32	88	81	
COc1cc2c(Nc3ccc(Br)cc3F)ncnc2cc1OCC1CCN(C)CC1 [Vandetanib, reference compound]								100
Cc1ccc(NC(=O)c2ccc(CN3CCN(C)CC3)cc2)cc1Nc1nccc(-c2cccnc2)n1 [Imatinib, reference compound]	100			74	100	100	100	
